# Several values for one entry are separate records, joined by “and”; a condition that tells them apart may be missing. Identical values can stand only once.
# Assays:
# KB = experiment: Cytotoxicity against human KB cells after 72 hrs by MTT assay; type: functional, cell-based
# [1] = Cytotoxicity against human CNE2 cells after 72 hrs by MTT assay; type: functional, cell-based, CNE-2
SMILES,"IC50 (KB; Homo sapiens, KB, 72 h) [µM]","IC50 ([1]; Homo sapiens, CNE-2, 72 h) [µM]",IC50 (KB; kb),IC50 ([1]; cne-2)
Cc1ccc(NC(=S)NC(=O)c2cccc(C(=O)NC(=S)Nc3ccc(C)cc3)c2)cc1,15.3,33,,
O=C(NC(=S)Nc1ccccc1C(F)(F)F)c1cccc(C(=O)NC(=S)Nc2ccccc2C(F)(F)F)c1,26.1,18.5,,
O=C(NC(=S)Nc1ccc(Br)cc1)c1cccc(C(=O)NC(=S)Nc2ccc(Br)cc2)c1,23.2,32.7,,
O=C(NC(=S)Nc1ccccc1F)c1cccc(C(=O)NC(=S)Nc2ccccc2F)c1,45,38.6,,
O=C(NC(=S)Nc1ccc(F)cc1)c1cccc(C(=O)NC(=S)Nc2ccc(F)cc2)c1,43.2,33,,
O=c1[nH]cc(F)c(=O)[nH]1 [FLUOROURACIL],15.9,,,
O=C(NC(=S)Nc1cccc(Br)c1)c1cccc(C(=O)NC(=S)Nc2cccc(Br)c2)c1,15.2,18.6,,
O=C(NC(=S)Nc1ccccc1)c1cccc(C(=O)NC(=S)Nc2ccccc2)c1,> 50,> 50,,
O=C(NC(=S)Nc1ccccc1Cl)c1cccc(C(=O)NC(=S)Nc2ccccc2Cl)c1,38.8,> 50,,
O=C(NC(=S)Nc1ccc(Cl)cc1)c1cccc(C(=O)NC(=S)Nc2ccc(Cl)cc2)c1,13.7,15.7,,
O=C(NC(=S)Nc1ccc(O)cc1)c1cccc(C(=O)NC(=S)Nc2ccc(O)cc2)c1,20,16.6,,
O=C(NC(=S)Nc1cccc(Cl)c1)c1cccc(C(=O)NC(=S)Nc2cccc(Cl)c2)c1,12,16.3,,
O=C(NC(=S)Nc1ccccc1Br)c1cccc(C(=O)NC(=S)Nc2ccccc2Br)c1,47.1,> 50,,
O=C(NC(=S)Nc1ccc([N+](=O)[O-])cc1)c1cccc(C(=O)NC(=S)Nc2ccc([N+](=O)[O-])cc2)c1,35.7,> 50,,
COc1ccc(NC(=S)NC(=O)c2cccc(C(=O)NC(=S)Nc3ccc(OC)cc3)c2)cc1,> 50,30.3,,
O=C(NC(=S)Nc1ccccc1O)c1cccc(C(=O)NC(=S)Nc2ccccc2O)c1,,,10.7 µM and > 50 µM,9.91 µM and > 50 µM
Cc1ccccc1NC(=S)NC(=O)c1cccc(C(=O)NC(=S)Nc2ccccc2C)c1,> 50,> 50,,

# From ChEMBL document CHEMBL1667856, “Efficient synthesis and biological evaluation of 1,3-benzenedicarbonyl dithioureas” (Bioorg Med Chem Lett, 2011)
